Experimental data from patent US5508293A, “Pyridinecarboxyimidamide compounds and the use thereof” (Kirin Beer Kabushiki Kaisha, priority 1992, dated 1996).

Assays:
rat aorta = experiment: Vasodilating effect in a rat aorta (relaxation of KCl-induced contraction); parameters: species or system rat (male Wistar rat); details: isolated rat thoracic aorta, 40 mM KCl; read-out: IC50 (concentration for inhibiting 50% of the tension induced by KCl)
Procedure: Physiological effect of the compound of the present invention was tested by the method with use of an isolated rat aorta.
Thoracic aorta was isolated from a male Wistar rat (body weight, 250-350 g) exsanguinated to death for obtaining ring preparations having a width of 3 mm. The preparations were suspended into an organ bath filled with the Krebs-Ringer solution through which a mixed gas of 95% O2 and 5% CO2 had been aerated at 37° C. A resting tension of 1 g was applied to the preparation. After the tension in the preparation was stabilized, the solution in the organ bath was exchanged with an equimolar solution containing 40 mM KC1 to increase the tension of the preparation. When the tension induced by KCl become stable, the test compound was cumulatively added to the organ bath to relax the preparation. Relaxation response was expressed as percentage inhibition of KCl-induced contraction, and the IC50 value (concentration for inhibiting 50% of the tension induced by KCl) was calculated from the average concentration-response curve by the Probit method.

[1] = system: spontaneously hypertensive rats (SHR), systolic blood pressure; experiment: Antihypertensive effects on conscious SHR (oral), Compound Nos. 18 and 19; format: in vivo, rat (male spontaneously hypertensive rats
Procedure: Antihypertensive effects of- 5-amino-N-cyano-N'-(2-nitroxyethyl)-3-pyridinecarboximidamide (N-cyano-N'-(2-nitroxyethyl)-5-(3-aminopyridine)carboximidamide; Compound No. 18) and N-cyano-5-ethylamino-N'-(2-nitroxyethyl)-3-pyridinecarboximidamide (N-cyano-N'-(2-nitroxyethyl)-5-[3-(N-ethylaminopyridine)]carboximidamide; Compound No. 19) were assessed by comparison with those of the methanesulfonate salt of N-cyano-N'-(2-nitroxyethyl)-3-pyridinecarboximidamide (compound described in Japanese Patent Laid-Open Publication No. 163061/1991) as a reference compound which is thought to be a well-known compound most similar to the compound of the present invention.
Systolic blood pressure (SBP) was measured with the tail cuff method.
Each of the compound Nos. 18 and 19 was dissolved in an equivalent mixture of polyethylene glycol 200 and physiological saline, and the reference compound was dissolved in physiological saline. The compounds were administered orally with the aid of an oral probe. SBP was measured before administration and 1, 2, 4, 6, 8, 12 and 24 hours after administration of the compound. The results were expressed as the percentage change in SBP observed before administration.

[2] = system: coronary blood flow (circumflex branch of the left coronary artery), beagles; experiment: Coronary dilating effect on beagles (coronary blood flow, anesthetized dog); format: in vivo; details: i.v., 10 Mg/Kg
Procedure: Coronary dilating effects of 5-amino-N-cyano-N'-(2-nitroxyethyl)-3-pyridinecarboximidamide (Compound No. 18) of the present invention was assessed by comparison with those of N-cyano-N'-(2-nitroxyethyl)-3-pyridinecarboximidamide methanesulfonic acid (compound described in Japanese Patent Laid-Open Publication No. 163061/1991) which is thought to be a well-known compound most similar to the compound of the present invention.
A dog (body weight, 8.3 kg) was anesthetized with 30 mg/kg of pentobarbital sodium intravenously. Respiration was maintained with room air through a cuffed endotracheal tube. The drug was administered through the femoral vein, and the coronary blood flow was measured by a probe attached to the circumflex branch of the left coronary artery.

[3] = Acute toxicity, oral, Compound No. 18; details: rat, in vivo, male SD rats (5 weeks old)
Procedure: Acute toxicity of 5-amino-N-cyano-N'-(2-nitroxyethyl)-3-pyridinecarboximidamide (Compound No. 18) of the present invention on oral administration was examined with male SD rats (5 weeks old). As a result, LD50 was about 600 mg/kg.

With N#CNC(=NCCO[N+](=O)[O-])c1cncc(N)c1 [Compound No. 18, 5-amino-N-cyano-N'-(2-nitroxyethyl)-3-pyridinecarboximidamide] the IC50 (rat aorta) was 22 µM, the “decrease in blood pressure / antihypertensive effect” value ([1]; 3.0 mg/kg oral) was “decrease in blood pressure was observed” and the “duration of the antihypertensive effect” value ([1]; 3.0 mg/kg oral) was ≥ 12 h. The “percent change in SBP observed before administration of the compound” value (from here on “percent change … of the compound”) ([1]; 3.0 mg/kg oral, 1 hour after administration) was -56.9%, the “percent change … of the compound” value ([1]; 3.0 mg/kg oral, 2 hour after administration) was -49.2% and the “percent change … of the compound” value ([1]; 3.0 mg/kg oral, 4 hour after administration) was -42.6%. The “percent change … of the compound” value ([1]; 3.0 mg/kg oral, 6 hour after administration) was -17.9%, the “percent change … of the compound” value ([1]; 3.0 mg/kg oral, 8 hour after administration) was -20.5% and the “percent change … of the compound” value ([1]; 3.0 mg/kg oral, 12 hour after administration) was -22.2%. The “percent change … of the compound” value ([1]; 3.0 mg/kg oral, 24 hour after administration) was -3.7%, the “antihypertensive activity or coronary vasodilating effect determined with the passage of time” value ([1]; summary statement) was “remarkably potent and sustainable” and the “increase of coronary blood flow” value [2] was “increase of coronary blood flow was observed”. The “time for which the increase of coronary blood flow was retained” value [2] was ≥ 15 min, the “percent change of coronary blood flow as compared with the blood flow before administration” value (“percent change of coronary blood flow” for short) ([2]; 1 min after dosage) was 200.0% and the “percent change of coronary blood flow” value ([2]; 3 min after dosage) was 123.8%. For the same compound, the “percent change of coronary blood flow” value ([2]; 5 min after dosage) was 71.4%, the “percent change of coronary blood flow” value ([2]; 10 min after dosage) was 19.0% and the “percent change of coronary blood flow” value ([2]; 15 min after dosage) was 19.0%. The “percent change of coronary blood flow” value ([2]; 20 min after dosage) was 0.0% and the LD50 [3] was ~600 mg/kg.
